According to article PMC4841451 (Journal of medicinal chemistry, 2016):

Experiments:
[1] = test system: pAkt (PI3K activity) in A549 and D54 cells; test: Western blot of pAKT in cultured tumor cells; format: cell-based, human; conditions: 1 h treatment; for PI3K inhibition in cells (Western blot): both cell lines (A549, D54); for PI3K activity, level of pAKT (Western blot): cultured A549 cells
A549 lung tumor cells = test: Cell viability, AlamarBlue assay, A549; format: cell-based, human; conditions: 48 h
[2] = test system: pErk1/2 (MEK1 activity) in A549 and D54 cells; test: Western blot of pERK1/2 in cultured tumor cells; format: cell-based, human; conditions: both cell lines (A549, D54), 1 h treatment
D54 glioma cells = test: Cell viability, AlamarBlue assay, D54; format: cell-based; conditions: 48 h
[3] = test system: tumor Akt phosphorylation; test: In vivo PI3K inhibition in tumor bearing mice
[4] = test system: tumor ERK1/2 phosphorylation; test: In vivo MEK1 inhibition in tumor bearing mice
[5] = preliminary experiment, A549 and D54 tumors, data not shown
[6] = 375 mg/kg oral gavage, 2 h prior to sacrifice, D54 and A549 flank tumors

| SMILES | PI3K inhibition in cells (Western blot) [1] | PI3K activity, level of pAKT (Western blot) [1] | cell viability (A549 lung tumor cells) | inhibition of MEK activity in cells (Western blot) [2] | cell viability (D54 glioma cells) | pAkt levels in mouse tumors [3, 5] | ERK1/2 levels in mouse tumors [4, 5] | phosphorylation of Akt in excised tumor tissue [3, 6] | phosphorylation of ERK1/2 in excised tumor tissue [4, 6] |
| --- | --- | --- | --- | --- | --- | --- | --- | --- | --- |
| O=C(NOCCNCCCCCC(=O)N1CCN(c2nc(N3CCOCC3)nc(-n3c(C(F)F)nc4ccccc43)n2)CC1)c1ccc(F)c(F)c1Nc1ccc(I)cc1F [Compound 9, N-(2-((6-(4-(4-(2-(Difluoromethyl)-1H-benzo[d]imidazol-1-yl)-6-morpholino-1,3,5-triazin-2-yl)piperazin-1-yl)-6-oxohexyl)amino)ethoxy)-3,4-difluoro-2-((2-fluoro-4-iodophenyl)amino)benzamide] | most pronounced | high potency | as effective as the combination of ZSTK474 and PD0325901 | most pronounced | as effective as the combination of ZSTK474 and PD0325901 | modulation | modulation |  |  |
| O=C(NOCCOCCOCCOCCN1CCN(c2nc(N3CCOCC3)nc(-n3c(C(F)F)nc4ccccc43)n2)CC1)c1ccc(F)c(F)c1Nc1ccc(I)cc1F [Compound 14, N-(2-(2-(2-(2-(4-(4-(2-(Difluoromethyl)-1H-benzo[d]imidazol-1-yl)-6-morpholino-1,3,5-triazin-2-yl)piperazin-1-yl)ethoxy)-ethoxy)ethoxy)ethoxy)-3,4-difluoro-2-((2-fluoro-4-iodophenyl)amino)benzamide] | most pronounced | high potency | as effective as the combination of ZSTK474 and PD0325901 | most pronounced | as effective as the combination of ZSTK474 and PD0325901 |  |  | inhibited | inhibited |
| O=C(CNCCONC(=O)c1ccc(F)c(F)c1Nc1ccc(I)cc1F)NCCCCCC(=O)N1CCN(c2nc(N3CCOCC3)nc(-n3c(C(F)F)nc4ccccc43)n2)CC1 [Compound 7, N-(2-((2-((6-(4-(4-(2-(Difluoromethyl)-1H-benzo[d]imidazol-1-yl)-6-morpholino-1,3,5-triazin-2-yl)piperazin-1-yl)-6-oxohexyl)amino)-2-oxoethyl)amino)ethoxy)-3,4-difluoro-2-((2-fluoro-4-iodophenyl)amino)benzamide] |  | high potency |  |  |  |  |  |  |  |
